Tested on: mouth sores
Test: Experimentation with amoxicillin on conventional patches for mouth sores
Format: in vivo, human
Conditions: amoxicillin powder for oral suspension massaged into conventional patch and dried
Text: Because use of antibiotics, antibacterials, and other pharmaceutical antimicrobials causes adverse side effects, experimentation with these medications has been limited. […] Conventional amoxicillin powder for preparation of oral suspension was used, which includes sugars and other excipients. The sugars act as a binder to the oral patch. The oral suspension is massaged into the patch and dried. Preferably, the amoxicillin powder is mixed into a stronger than normal liquid before being added to the patch.

For `CC1(C)S[C@@H]2[C@H](NC(=O)[C@H](N)c3ccc(O)cc3)C(=O)N2[C@H]1C(=O)O` [amoxicillin], which “effect of medication on patch in treating mouth sores” value is on record?
The value was “works quite well”.

From US20070243238A1, “Treating mouth sores with patches adhered to teeth” (priority 2006, published 2007)
